Legend:
Assay in all cases: chemokine receptor panel antagonism: CCR6, CXCR5, CXCR6, profiling panel, selectivity assay for CXCR6 antagonist project, cell-based, CHO-K1 PathHunter beta-arrestin, luminescence (AID 651601)
Conditions in all cases: antagonist mode
[1] = biological target: C-C chemokine receptor type 6 (Homo sapiens) (UniProt P51684)
[2] = biological target: C-X-C chemokine receptor type 5 (Homo sapiens) (UniProt P32302)
[3] = biological target: C-X-C chemokine receptor type 6 (Homo sapiens) (UniProt O00574)
Sequence of C-X-C chemokine receptor type 6 (Homo sapiens) (O00574 whole entry, looked up): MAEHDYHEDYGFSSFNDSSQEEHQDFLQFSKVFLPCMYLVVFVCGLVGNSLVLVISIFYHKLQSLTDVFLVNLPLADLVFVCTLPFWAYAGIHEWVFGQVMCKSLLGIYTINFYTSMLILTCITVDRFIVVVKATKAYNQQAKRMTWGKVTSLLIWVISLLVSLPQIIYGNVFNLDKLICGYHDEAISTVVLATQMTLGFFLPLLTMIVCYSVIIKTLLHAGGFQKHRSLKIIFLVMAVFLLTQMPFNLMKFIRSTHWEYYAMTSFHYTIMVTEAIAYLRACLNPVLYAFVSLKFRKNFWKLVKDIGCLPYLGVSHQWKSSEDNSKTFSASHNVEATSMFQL

[4] = CCR6, mean of runs, mean IC50 across replicates
[5] = CXCR5, mean of runs, mean IC50 across replicates
[6] = CXCR6, mean of runs, mean IC50 across replicates

Sequence of C-X-C chemokine receptor type 5 (Homo sapiens) (P32302 whole entry, looked up): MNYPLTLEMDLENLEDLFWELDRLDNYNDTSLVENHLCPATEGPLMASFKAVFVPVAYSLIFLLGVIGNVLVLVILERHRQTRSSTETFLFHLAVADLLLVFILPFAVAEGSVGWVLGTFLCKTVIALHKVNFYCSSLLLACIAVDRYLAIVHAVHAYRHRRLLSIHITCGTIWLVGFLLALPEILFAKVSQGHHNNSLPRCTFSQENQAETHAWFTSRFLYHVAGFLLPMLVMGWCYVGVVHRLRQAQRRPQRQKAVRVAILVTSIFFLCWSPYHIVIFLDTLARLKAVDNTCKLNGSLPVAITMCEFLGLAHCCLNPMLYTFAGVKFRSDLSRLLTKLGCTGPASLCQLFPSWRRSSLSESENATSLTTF
Sequence of C-C chemokine receptor type 6 (Homo sapiens) (P51684 whole entry, looked up): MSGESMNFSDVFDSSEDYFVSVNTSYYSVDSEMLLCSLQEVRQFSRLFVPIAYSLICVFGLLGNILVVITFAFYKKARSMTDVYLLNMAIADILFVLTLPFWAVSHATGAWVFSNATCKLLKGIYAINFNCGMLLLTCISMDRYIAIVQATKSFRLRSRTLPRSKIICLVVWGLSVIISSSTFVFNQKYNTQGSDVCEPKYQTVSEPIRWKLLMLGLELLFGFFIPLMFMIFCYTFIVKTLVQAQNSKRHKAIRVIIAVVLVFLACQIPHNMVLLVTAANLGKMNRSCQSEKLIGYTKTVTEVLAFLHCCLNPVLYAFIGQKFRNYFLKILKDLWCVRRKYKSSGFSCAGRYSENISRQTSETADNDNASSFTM

Compound | IC50 [1, 4] [µM] | IC50 ([1]; CCR6, run 1) [µM] | IC50 ([1]; CCR6, run 2) [µM] | IC50 ([1]; CCR6, run 3) [µM] | IC50 ([1]; CCR6, run 4) [µM] | IC50 [2, 5] [µM] | IC50 ([2]; CXCR5, run 1) [µM] | IC50 ([2]; CXCR5, run 2) [µM] | IC50 [3, 6] [µM] | IC50 ([3]; CXCR6, run 1) [µM] | IC50 ([3]; CXCR6, run 2) [µM] | IC50 ([3]; CXCR6, run 3) [µM] | IC50 ([3]; CXCR6, run 4) [µM]
CN(C)c1ccc(NC(=O)CN2C3CCCC2CC(NC(=O)c2ccccc2)C3)cc1 (stereo not drawn) | > 80 | > 80 | > 80 | > 80 | > 80 | > 66.6 | > 66.6 | > 66.6 | > 80 | > 80 | > 80 | > 80 | > 80
O=C(CN1C2CCCC1CC(NC(=O)c1ccccc1)C2)Nc1ccccc1C(F)(F)F (stereo not drawn) | > 80 | > 80 | > 80 | > 80 | > 80 | > 66.6 | > 66.6 | > 66.6 | > 80 | > 80 | > 80 | > 80 | > 80
COc1cccc(C(=O)NC2CC3CCCC(C2)N3CC(=O)Nc2ccccc2C(F)(F)F)c1 (stereo not drawn) | > 80 | > 80 | > 80 | > 80 | > 80 | > 66.6 | > 66.6 | > 66.6 | > 80 | > 80 | > 80 | > 80 | > 80
O=C(CN1C2CCCC1CC(NC(=O)c1ccccc1)C2)Nc1ccccc1 (stereo not drawn) | > 80 | > 80 | > 80 | > 80 | > 80 | > 66.6 | > 66.6 | > 66.6 | > 80 | > 80 | > 80 | > 80 | > 80
COc1cc(C(=O)NC2CC3CCCC(C2)N3CC(=O)Nc2ccccc2)cc(OC)c1OC (stereo not drawn) | > 80 | > 80 | > 80 | > 80 | > 80 | > 66.6 | > 66.6 | > 66.6 | 14.3 | 4.79 | 5.96 | 5.86 | 40.6
COc1cccc(C(=O)NC2CC3CCCC(C2)N3CC(=O)Nc2ccc(N(C)C)cc2)c1 (stereo not drawn) | > 80 | > 80 | > 80 | > 80 | > 80 | > 66.6 | > 66.6 | > 66.6 | > 80 | > 80 | > 80 | > 80 | > 80
